Legend:
[1] = Dissolution in dosing vehicle; assay type: physicochemical; conditions: DMSO:PEG400:saline ratio of 5:70:25
Experimental: In vivo rat pharmacokinetic studies were performed for intravenous and oral administration of PCiv as previously reported. Sprague-Dawley rats (8 weeks old, 260–280 g) were purchased from Orient Bio Inc. (Seongnam, Korea). Rats were maintained with free access to food and water under a 12:12 h light/dark cycle for 1 week. For pharmacokinetic studies, under anesthetic conditions (20 mg/kg tiletamine/zolazepam [Zoletil; Vibrac Laboratories, Carros, France] administered intramuscularly), the femoral vein and artery were surgically cannulated using polyethylene tubing (PE50; Clay Adams, Parsippany, NJ, USA) in fasted rats. Then, PCiv was administered intravenously and orally at a dose of 10 mg/kg (n = 4–5). The drug was dissolved in a vehicle (DMSO:PEG400:saline at a ratio of 5:70:25). Blood samples (approximately 100 μL) were collected at predetermined time points (0, 1, 5 (intravenous administration only), 15, 30, 60, 120, 180, 240, 360, and 480 min) after drug administration. […] The PCiv level was determined using a CapcellpakTM C18 5 μm column (250 × 1.5 mm, Shiseido Fine Chemical Co., Tokyo, Japan), as previously described. […] The tissue concentration levels were calculated as the PCiv amount (ng) per gram of organ weight.

[2] = test system: combinatorial α-synucleinopathy PD mouse model; experiment: Sporadic PD mouse model, combinatorial PFF and rAAV-αSyn nigral injection, PCiv diet; assay type: in vivo
Experimental: Figure 4 PCiv administration suppresses PFF-induced dopaminergic neurodegeneration, α-synuclein aggregation, and motor dysfunction in vivo. (A) Bradykinesia (slowness of movement) assessed by pole test for control and combinatorial PFF/AAV-αSyn-injected mice with or without PCiv treatment (50 mg PCiv/kg diet for 30 days, n = 5 per group). Control mice are those nigrally injected with PBS and AAV-GFP. (B) Motor coordination of the mice in the experimental group was assessed by an accelerated rotarod test (n = 5 per group). (C) Representative tyrosine hydroxylase (TH) immunohistochemical staining of the ventral midbrains of control and combinatorial α-synucleinopathy-PD mice fed with a PCiv diet (50 mg/kg diet for 30 days) or normal chow diet. (D) Stereological assessment of TH-positive dopaminergic neurons in the substantia nigra pars compacta of the injection side of the indicated mice groups (n = 5 mice per group). (E) Representative immunofluorescence images of pS129-αSyn and TH in the substantia nigra coronal sections of the indicated experimental mice groups. (F) Quantification of relative pS129-αSyn fluorescence intensities in the TH-positive dopamine neurons of the substantia nigra sections from the indicated experimental groups (n = 28 cells from 3 mice per group). The quantified data are expressed as means ± SEMs. Statistical significance was determined by an ANOVA test with Tukey’s post hoc analysis, ** p < 0.01, *** p < 0.001, and **** p < 0.0001. ns = nonsignificant.
All animal experiments were approved by the Ethical Committee of Sungkyunkwan University Animal Care and Use Committee of Gachon University (Approval number: […]2019-06-15-1; GIACUC-R2021006) and were conducted in accordance with all applicable international guidelines. Male C57BL/6N mice (2 months old) were obtained from Orient Bio (Suwon, Korea). The animals were housed in air-controlled rooms with a 12-h dark/light cycle. Mice and rats were provided ad libitum access to diet and water. All efforts were made to minimize animal suffering and the number of animals used in the experiments. A synthetic PCiv diet was supplied to the mice. The PCiv diet administration (50 mg/kg/day for PFF PD mouse models) began on day 0 and was continued for 30 days. Intranigral injection of the rAAV-αSyn and PFF mixture was performed on day 0. Mice brains were prepared for analysis, as described below. To test the therapeutic effects of PCiv, we prepared a diet containing PCiv. To facilitate each mouse consuming 2 mg of PCiv per day, we generated a mixture of 400 mg of PCiv per kg of rodent diet and then supplied it to the mice.
The α-synucleinopathy PD model was created by co-injecting PFF (10 µg; ventral tegmental area: AP, −3.4 mm; ML, −0.5 mm; DV, −4.3 mm) and rAAV-αSyn (AAV serotype 1, 1 µL of titer 5 × 1011 GC/mL; substantia nigra pars compacta: AP, −3.4 mm; ML, −1.3 mm; DV, −4.3 mm) into a 2-month-old C57BL/6N mouse. rAAV-GFP was used as the control. PFF was prepared from pure recombinant human α-synuclein (Proteos, Inc., Kalamazoo, MI, USA) according to a previous report. Before use, sonicated PFFs were evaluated using Western blotting and a functional assay in cortical neuron cultures (pS129-αSyn induction and neurotoxicity). After co-injecting PFF and rAAV-αSyn, PD models were fed a PCiv or normal diet for a month. For stereological analysis, the animals were perfused 1 month after intranigral injection and fixed intracardially with ice-cold PBS. The tissues were post-fixed with 4% paraformaldehyde overnight. The fixed mice brains were cryoprotected in 30% sucrose (wt/vol) in PBS and subsequently processed for immunohistochemistry.
Coronal sections (thickness, 35 µm) of the fixed and cryoprotected brains were cut, including the substantia nigra. […]

[3] = test system: 6-OHDA-induced PD mouse model; set-up: method as in PMID 31689937; conditions: cited from earlier work
[4] = set-up: method as in PMID 31689937; conditions: intraperitoneal administration in mice; cited from earlier work
[5] = PD mice, PCiv diet 50 mg/kg diet for 30 days

Structure (SMILES) | dissolution in vehicle solution [1] | total α-synuclein expression ([2]; PBS+AAV-GFP and PFF+AAV-αSyn injection groups, PCiv diet) | development of motor impairment (pole and rotarod tests) ([2]; PD mice, PCiv diet 50 mg per kg diet, four weeks) | dopaminergic neurons (TH-positive, substantia nigra) [2, 5] | α-synuclein aggregation pathology (pS129-αSyn in TH-positive dopamine neurons) [2, 5] | dopamine neuron viability in control mouse group ([2]; control mice (PBS + AAV-GFP), PCiv diet) | overt toxicity ([2]; in cells and in vivo mouse models) | neuroprotection [3] | brain distribution [4]
C/C=C(\C)C(=O)O[C@H]1[C@H](OC(C)=O)c2c(ccc3ccc(=O)oc23)OC1(C)C (relative stereo) [PCiv, trans-4′-acetyl-3′-tigloylkhellactone] | well-dissolved | no alteration | almost completely prevented | marked protection | largely blocked | no effect | did not observe any overt toxicity | – | –
C/C=C(\C)C(=O)O[C@@H]1c2c(ccc3ccc(=O)oc23)OC(C)(C)[C@H]1OC(C)=O (relative stereo) [PCiii, peucedanocoumarin III] | – | – | – | – | – | – | – | neuroprotective | demonstrated brain distribution

From PMC9369442, “Synthetic Peucedanocoumarin IV Prevents α-Synuclein Neurotoxicity in an Animal Model of Parkinson’s Disease” (International Journal of Molecular Sciences, 2022)
